Assays:
[1] = 298.15 K, 101.33 kPa, Liquid; for mass density: Pycnometric method; for speed of sound: Sing-around technique in a fixed-path interferometer
[2] = xn = mol fraction of the nth substance listed; settings: 298.15 K, 101 kPa, Liquid, Sing-around technique in a fixed-path interferometer

COCCOCCO [2-(2-methoxyethoxy)ethanol]
[1]
Settings | mass density [kg/m3] | speed of sound [m/s]
– | 1016.43 | 1417.2

COCCOCCO [2-(2-methoxyethoxy)ethanol] + CCCN
[2]
Settings | speed of sound [m/s]
x1 = 0.0055 | 1215.3
x1 = 0.0112 | 1217
x1 = 0.024 | 1220.2
x1 = 0.0454 | 1225.5
x1 = 0.0749 | 1233.3
x1 = 0.0948 | 1238.6
x1 = 0.1292 | 1249.1
x1 = 0.1834 | 1264.6
x1 = 0.2523 | 1284.5
x1 = 0.309 | 1301.5
x1 = 0.3831 | 1320.8
x1 = 0.4484 | 1337
x1 = 0.5041 | 1349.4
x1 = 0.5603 | 1360.6
x1 = 0.6353 | 1373.2
x1 = 0.6792 | 1380
x1 = 0.7209 | 1385.9
x1 = 0.7775 | 1392.7
x1 = 0.8121 | 1397.5
x1 = 0.8725 | 1404.9
x1 = 0.912 | 1408.8
x1 = 0.9332 | 1411.2
x1 = 0.9535 | 1413.1
x1 = 0.9852 | 1416.5
x1 = 0.9983 | 1417.1

COCCOCCOCCO [2-[2-(2-methoxyethoxy)ethoxy]ethanol]
[1]
Settings | mass density [kg/m3] | speed of sound [m/s]
– | 1043.06 | 1459

COCCOCCOCCO [2-[2-(2-methoxyethoxy)ethoxy]ethanol] + CCCN
[2]
Settings | speed of sound [m/s]
x1 = 0.0039 | 1216.1
x1 = 0.0134 | 1219.9
x1 = 0.0327 | 1226.9
x1 = 0.0519 | 1234.2
x1 = 0.0799 | 1245.4
x1 = 0.108 | 1258
x1 = 0.1484 | 1274.9
x1 = 0.2102 | 1299.7
x1 = 0.2743 | 1324.5
x1 = 0.341 | 1347.6
x1 = 0.3879 | 1361.8
x1 = 0.4351 | 1375
x1 = 0.5433 | 1398.7
x1 = 0.5904 | 1407.5
x1 = 0.6475 | 1416
x1 = 0.6873 | 1422.1
x1 = 0.7353 | 1429.5
x1 = 0.7806 | 1434.9
x1 = 0.8226 | 1441.1
x1 = 0.8873 | 1448.3
x1 = 0.9295 | 1452.6
x1 = 0.9565 | 1456.2
x1 = 0.9751 | 1457
x1 = 0.9898 | 1458.5
x1 = 0.9973 | 1458.7

COCCO [2-methoxyethan-1-ol]
[1]
Settings | mass density [kg/m3] | speed of sound [m/s]
– | 960.32 | 1343.3

CCCCOCCOCCO [3,6-dioxa-1-decanol]
[1]
Settings | mass density [kg/m3] | speed of sound [m/s]
– | 947.98 | 1358.9

CCCCOCCOCCO [3,6-dioxa-1-decanol] + CCCN
[2]
Settings | speed of sound [m/s]
x1 = 0.0052 | 1215.5
x1 = 0.0133 | 1218.1
x1 = 0.0295 | 1223
x1 = 0.0505 | 1228.7
x1 = 0.0779 | 1236.9
x1 = 0.1487 | 1256.7
x1 = 0.2053 | 1272.3
x1 = 0.2645 | 1286.7
x1 = 0.318 | 1298.6
x1 = 0.378 | 1310.2
x1 = 0.4304 | 1319.4
x1 = 0.4767 | 1326
x1 = 0.5226 | 1331.6
x1 = 0.5715 | 1336.8
x1 = 0.6306 | 1342.1
x1 = 0.6855 | 1346.2
x1 = 0.7347 | 1349.4
x1 = 0.7728 | 1351.3
x1 = 0.8152 | 1353.3
x1 = 0.87 | 1355.9
x1 = 0.9073 | 1356.7
x1 = 0.9289 | 1357.7
x1 = 0.9504 | 1358.3
x1 = 0.9663 | 1358.5
x1 = 0.9813 | 1358.7

CCOCCOCCO [3,6-dioxa-1-octanol]
[1]
Settings | mass density [kg/m3] | speed of sound [m/s]
– | 983.84 | 1377.3

CCOCCOCCO [3,6-dioxa-1-octanol] + CCCN
[2]
Settings | speed of sound [m/s]
x1 = 0.0021 | 1215.3
x1 = 0.0048 | 1215.4
x1 = 0.0177 | 1218.7
x1 = 0.0374 | 1223.3
x1 = 0.0647 | 1230.5
x1 = 0.0909 | 1236.8
x1 = 0.1313 | 1247.7
x1 = 0.1669 | 1257.2
x1 = 0.2491 | 1278.4
x1 = 0.3135 | 1293.9
x1 = 0.3898 | 1310.7
x1 = 0.4519 | 1322.7
x1 = 0.4879 | 1329.1
x1 = 0.5348 | 1337.5
x1 = 0.5888 | 1344.5
x1 = 0.6314 | 1349.7
x1 = 0.6808 | 1355.5
x1 = 0.7314 | 1359.9
x1 = 0.7778 | 1363.7
x1 = 0.8381 | 1367.3
x1 = 0.876 | 1370
x1 = 0.9121 | 1371.4
x1 = 0.9343 | 1373.1
x1 = 0.9624 | 1374.6
x1 = 0.9887 | 1375.9
x1 = 0.9971 | 1376.8

CCCCOCCOCCOCCCC [5,8,11-trioxapentadecane]
[1]
Settings | mass density [kg/m3] | speed of sound [m/s]
– | 878.55 | 1270.1

CCCCOCCOCCOCCCC [5,8,11-trioxapentadecane] + CCCN
[2]
Settings | speed of sound [m/s]
x1 = 0.0033 | 1215.3
x1 = 0.0114 | 1215.5
x1 = 0.033 | 1217.3
x1 = 0.0476 | 1218.4
x1 = 0.0724 | 1221
x1 = 0.0955 | 1222.8
x1 = 0.139 | 1227.3
x1 = 0.1781 | 1231.7
x1 = 0.2413 | 1237.2
x1 = 0.3004 | 1242
x1 = 0.3569 | 1245.8
x1 = 0.4169 | 1249.5
x1 = 0.4689 | 1251.9
x1 = 0.5355 | 1255.2
x1 = 0.5925 | 1258.2
x1 = 0.6493 | 1260.8
x1 = 0.6979 | 1262.9
x1 = 0.7548 | 1264.7
x1 = 0.8153 | 1266.6
x1 = 0.8686 | 1268.2
x1 = 0.9 | 1269
x1 = 0.9241 | 1269.5
x1 = 0.9526 | 1269.9
x1 = 0.977 | 1270.1
x1 = 0.991 | 1270.3

CCOCCOCCOCC [diethylene glycol diethyl ether]
[1]
Settings | mass density [kg/m3] | speed of sound [m/s]
– | 902.76 | 1241.9

CCOCCOCCOCC [diethylene glycol diethyl ether] + CCCN
[2]
Settings | speed of sound [m/s]
x1 = 0.0035 | 1214.7
x1 = 0.0108 | 1214.5
x1 = 0.025 | 1214
x1 = 0.0591 | 1214.1
x1 = 0.0865 | 1214.7
x1 = 0.1134 | 1215.2
x1 = 0.1662 | 1217.3
x1 = 0.2091 | 1218.8
x1 = 0.2738 | 1221.4
x1 = 0.3214 | 1223.8
x1 = 0.3658 | 1225.7
x1 = 0.3939 | 1227
x1 = 0.4846 | 1230.5
x1 = 0.5313 | 1232.3
x1 = 0.5713 | 1233.8
x1 = 0.6319 | 1235.6
x1 = 0.6754 | 1236.7
x1 = 0.7192 | 1238.1
x1 = 0.7754 | 1239.4
x1 = 0.8066 | 1240.1
x1 = 0.8729 | 1241.7
x1 = 0.9037 | 1242.1
x1 = 0.9238 | 1242.2
x1 = 0.9448 | 1242.3
x1 = 0.9638 | 1242.4
x1 = 0.9835 | 1242.5
x1 = 0.9916 | 1242.2

CCCN [propan-1-amine]
[1]
Settings | mass density [kg/m3] | speed of sound [m/s]
– | 712.25 | 1215.2

CCCN [propan-1-amine] + COCCO
[2]
Settings | speed of sound [m/s]
x2 = 0.0036 | 1215.3
x2 = 0.0101 | 1216.4
x2 = 0.0272 | 1218.3
x2 = 0.047 | 1221.7
x2 = 0.0831 | 1227.4
x2 = 0.1175 | 1232.5
x2 = 0.1521 | 1238.8
x2 = 0.1977 | 1247
x2 = 0.2378 | 1254
x2 = 0.2982 | 1265.6
x2 = 0.3629 | 1276.6
x2 = 0.4188 | 1285.8
x2 = 0.474 | 1294.1
x2 = 0.5181 | 1299.6
x2 = 0.5862 | 1307.8
x2 = 0.6459 | 1314.6
x2 = 0.7102 | 1321.5
x2 = 0.799 | 1329.7
x2 = 0.8253 | 1331.6
x2 = 0.8642 | 1334.2
x2 = 0.8918 | 1336.2
x2 = 0.908 | 1338
x2 = 0.9316 | 1339.5
x2 = 0.9621 | 1341.5
x2 = 0.9824 | 1342.9
x2 = 0.9932 | 1343.4
x2 = 0.9989 | 1343.5

From the NIST ThermoML archive (doi:10.1007/s10765-006-0047-0)
